Measured values as given in patent EP4631941A1 (Jiangsu Tasly Diyi Pharmaceutical Co., Ltd., priority 2022, dated 2024).
Where a name gives a salt, the structure may show the parent alone.

target: T1, DYRK2 kinase (Homo sapiens, UniProt Q92630); test: DYRK2 kinase activity analysis assay (33P-ATP, DYRKtide substrate, P81 filter paper); type: biochemical; conditions: 2 hours at room temperature, read-out: IC50
T1 sequence (Q92630 1-601): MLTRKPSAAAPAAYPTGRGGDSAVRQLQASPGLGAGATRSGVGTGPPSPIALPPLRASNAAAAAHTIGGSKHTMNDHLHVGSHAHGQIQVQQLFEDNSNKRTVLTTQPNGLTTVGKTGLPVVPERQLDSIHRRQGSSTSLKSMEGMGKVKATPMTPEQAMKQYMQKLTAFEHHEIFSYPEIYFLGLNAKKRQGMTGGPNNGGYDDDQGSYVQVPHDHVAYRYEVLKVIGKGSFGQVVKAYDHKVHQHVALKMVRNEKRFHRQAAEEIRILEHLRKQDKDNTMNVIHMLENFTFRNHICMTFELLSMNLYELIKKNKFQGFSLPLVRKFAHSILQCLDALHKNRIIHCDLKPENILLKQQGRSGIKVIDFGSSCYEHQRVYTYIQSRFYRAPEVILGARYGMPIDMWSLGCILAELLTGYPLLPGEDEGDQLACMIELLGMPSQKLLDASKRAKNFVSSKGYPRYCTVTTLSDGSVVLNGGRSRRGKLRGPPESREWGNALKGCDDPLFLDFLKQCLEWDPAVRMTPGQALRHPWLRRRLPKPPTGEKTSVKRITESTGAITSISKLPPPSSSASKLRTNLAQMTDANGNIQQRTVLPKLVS

Compound	IC50
Cc1cnc(Nc2ccc(CN3CCN(C(C)C)CC3)cn2)nc1-c1ccc2scnc2c1 [Example 1, 4-(benzothiazole-5-yl)-N-(5-((4-isopropylpiperazine-1-yl)methyl)pyridine-2-yl)-5-methylpyri midine-2-amine]	1470 nM
Cc1cnc(Nc2ccc(CN3CCNCC3)cn2)nc1-c1ccc2scnc2c1 [Example 2, hydrochloride]	1420 nM
CCN1CCN(C(=O)c2ccc(Nc3ncc(C)c(-c4ccc5scnc5c4)n3)nc2)CC1 [Example 3, (6-((4-(benzothiazole-5-yl)-5-methylpyrimidine-2-yl)amino)pyridine-3-yl)(4-ethylpiperazine-1-yl)ketone]	498 nM
Cc1cnc(Nc2ccc(C(=O)N3CCN(C(=O)OC(C)(C)C)CC3)cn2)nc1-c1ccc2scnc2c1 [Example 4, tert-butyl 4-(6-((4-(benzothiazole-5-yl)-5-methylpyrimidine-2-yl)amino)nicotinoyl)piperazine-1-carboxylate]	268 nM
Cc1cnc(Nc2ccc(C(=O)N3CCNCC3)cn2)nc1-c1ccc2scnc2c1 [Example 5, (6-((4-(benzothiazole-5-yl)-5-methylpyrimidine-2-yl)amino)pyridine-3-yl)(piperazine-1-yl)ketone hydrochloride]	357 nM
COc1cnc(Nc2ccc(C(=O)N3CCNCC3)cn2)nc1-c1ccc2scnc2c1 [Example 6, (6-((4-(benzothiazole-5-yl)-5-methoxypyrimidine-2-yl)amino)pyridine-3-yl)(piperazine-1-yl)k etone hydrochloride]	774 nM
COc1cnc(Nc2ccc(CN3CCNCC3)cn2)nc1-c1ccc2scnc2c1 [Example 7, 4-(benzothiazole-5-yl)-5-methoxy-N-(5-(piperazine-1-ylmethyl)pyridine-2-yl)pyrimidine-2-amine hydrochloride]	779 nM
c1cc(-c2ccc3scnc3c2)nc(Nc2ccc(CN3CCNCC3)cn2)n1 [Example 8, 4-(benzothiazole-5-yl)-N-(5-(piperazine-1-methylene)pyridine-2-yl)pyrimidine-2-amine hydrochloride]	636 nM
CCN1CCN(C(=O)c2ccc(Nc3nccc(-c4ccc5scnc5c4)n3)nc2)CC1 [Example 9, (6-((4-(benzothiazole-5-yl)pyrimidine-2-yl)amino)pyridine-3-yl)(4-ethylpiperazine-1-yl)ketone]	67 nM
CC(C)(C)OC(=O)N1CCN(C(=O)c2ccc(Nc3nccc(-c4ccc5scnc5c4)n3)nc2)CC1 [Example 10, tert-butyl 4-(6-((4-(benzothiazole-5-yl)pyrimidine-2-yl)amino)nicotinoyl)piperazine-1-carboxylate]	99 nM
O=C(c1ccc(Nc2nccc(-c3ccc4scnc4c3)n2)nc1)N1CCNCC1 [Example 11, (6-((4-(benzothiazole-5-yl)pyrimidine-2-yl)amino)pyridine-3-yl)(piperazine-1-yl)ketone hydrochloride]	190 nM
CCN1CCN(Cc2ccc(Nc3ncc(F)c(-c4ccc5scnc5c4)n3)nc2)CC1 [Example 12]	430 nM
Fc1cnc(Nc2ccc(CN3CCNCC3)cn2)nc1-c1ccc2scnc2c1 [Example 13, 4-(benzothiazole-5-yl)-5-fluoro-N-(5-(piperazine-1-methylene)pyridine-2-yl)pyrimidine-2-amine hydrochloride]	216 nM
CC(=O)N1CCN(C(=O)c2ccc(Nc3ncc(F)c(-c4ccc5scnc5c4)n3)nc2)CC1 [Example 15, 1-(4-(6-((4-(benzothiazole-5-yl)-5-fluoropyrimidine-2-yl)amino)nicotinoyl)piperazine-1-yl)ethyl-1-one]	28 nM
O=C(c1ccc(Nc2ncc(F)c(-c3ccc4scnc4c3)n2)nc1)N1CCN(c2ccccc2)CC1 [Example 17, (6-((4-(benzothiazole-5-yl)-5-fluoropyrimidine-2-yl)amino)pyridine-3-yl)(4-phenylpiperazine-1-yl)ketone]	56 nM
CCOC(=O)N1CCN(C(=O)c2ccc(Nc3ncc(F)c(-c4ccc5scnc5c4)n3)nc2)CC1 [Example 18, ethyl 4-(6-((4-(benzothiazole-5-yl)-5-fluoropyrimidine-2-yl)amino)nicotinoyl) piperazine-1-carboxylate]	29 nM
CC(C)(C)OC(=O)N1CCN(C(=O)c2ccc(Nc3ncc(F)c(-c4ccc5scnc5c4)n3)nc2)CC1 [Example 19, tert-butyl 4-(6-((4-(benzothiazole-5-yl)-5-fluoropyrimidine-2-yl)amino)nicotinoyl)piperazine-1-carboxylate]	70 nM
CCN1CCN(C(=O)c2cnc(Nc3ncc(F)c(-c4ccc5scnc5c4)n3)nc2)CC1 [Example 21, (2-((4-(benzothiazole-5-yl)-5-fluoropyrimidine-2-yl)amino)pyrimidine-5-yl)(4-ethylpiperazine-1-yl)ketone]	1050 nM
CC(C)(C)OC(=O)N1CCN(C(=O)c2cnc(Nc3ncc(F)c(-c4ccc5scnc5c4)n3)nc2)CC1 [Example 22, tert-butyl 4-(2-((4-(benzothiazole-5-yl)-5-fluoropyrimidine-2-yl)amino)pyrimidine-5-carbonyl)piperazine-1-c arboxylate]	535 nM
O=C(c1cnc(Nc2ncc(F)c(-c3ccc4scnc4c3)n2)nc1)N1CCNCC1 [Example 23, (2-((4-(benzothiazole-5-yl)-5-fluoropyrimidine-2-yl)amino)pyrimidine-5-yl)(piperazine-1-yl)k etone hydrochloride]	695 nM
CCN(CC)c1nc2cc(-c3nc(Nc4ccc(C(=O)N5CCN(C(C)C)CC5)nc4)ncc3F)ccc2s1 [Example 34, (5-((4-(2-(diethylamino)benzothiazole-5-yl)-5-fluoropyrimidine-2-yl)amino)pyridine-2-yl)(4-isopropylpiperazine-1-yl)ketone]	45 nM

Next, values leading:

IC50	Compound
22 nM	CCN1CCN(C(=O)c2ccc(Nc3ncc(F)c(-c4ccc5scnc5c4)n3)nc2)CC1 [Example 14, (6-((4-(benzothiazole-5-yl)-5-fluoropyrimidine-2-yl)amino)pyridine-3-yl)(4-ethylpiperazine-1-yl)ketone]
15 nM	CCN1CCN(C(=O)c2ccc(Nc3ncc(F)c(-c4ccc5scnc5c4)n3)cn2)CC1 [Example 24, (5-((4-(benzothiazole-5-yl)-5-fluoropyrimidine-2-yl)amino)pyridine-2-yl)(4-ethylpiperazine-1-yl)ketone]
16 nM	CC(C)(C)OC(=O)N1CCN(c2ccc(Nc3ncc(F)c(-c4ccc5scnc5c4)n3)cn2)CC1 [Example 25, tert-butyl 4-(5-((4-(benzothiazole-5-yl)-5-fluoropyrimidine-2-yl)amino)pyridine-2-yl)piperazine-1-carboxylate]
4 nM	O=C(c1ccc(Nc2ncc(F)c(-c3ccc4scnc4c3)n2)cn1)N1CCNCC1 [Example 26, (5-((4-(benzothiazole-5-yl)-5-fluoropyrimidine-2-yl)amino)pyridine-2-yl)(piperazine-1-yl)ketone hydrochloride]
18 nM	CN(C)c1nc2cc(-c3nc(Nc4ccc(C(=O)N5CCNCC5)cn4)ncc3F)ccc2s1 [Example 27, (6-((4-(2-(dimethylamino)benzothiazole-5-yl)-5-fluoropyrimidine-2-yl)amino)pyridine-3-yl)(piperazine-1-yl)ketone hydrochloride]
35 nM	CCN(CC)c1nc2cc(-c3nc(Nc4ccc(C(=O)N5CCNCC5)cn4)ncc3F)ccc2s1 [Example 28, (6-((4-(2-(diethylamino)benzothiazole-5-yl)-5-fluoropyrimidine-2-yl)amino)pyridine-3-yl)(piperazine-1-yl)ketone hydrochloride]
11 nM	CCN1CCN(C(=O)c2ccc(Nc3ncc(F)c(-c4ccc5sc(N(C)C)nc5c4)n3)cn2)CC1 [Example 29, (5-((4-(2-(dimethylamino)benzothiazole-5-yl)-5-fluoropyrimidine-2-yl)amino)pyridine-2-yl)(4-ethylpiperazine-1-yl)ketone]
13 nM	CC(C)N1CCN(C(=O)c2ccc(Nc3ncc(F)c(-c4ccc5sc(N(C)C)nc5c4)n3)cn2)CC1 [Example 30, (5-((4-(2-(dimethylamino)benzothiazole-5-yl)-5-fluoropyrimidine-2-yl)amino)pyridine-2-yl)(4-isopropylpiperazine-1-yl)ketone]
9 nM	CN(C)c1nc2cc(-c3nc(Nc4ccc(C(=O)N5CCNCC5)nc4)ncc3F)ccc2s1 [Example 32, (5-((4-(2-(dimethylamino)benzothiazole-5-yl)-5-fluoropyrimidine-2-yl)amino)pyridine-2-yl)(piperazine-1-yl)ketone hydrochloride]
29 nM	CCN1CCN(C(=O)c2ccc(Nc3ncc(F)c(-c4ccc5sc(N(CC)CC)nc5c4)n3)cn2)CC1 [Example 33, (5-((4-(2-(diethylamino)benzothiazole-5-yl)-5-fluoropyrimidine-2-yl)amino)pyridine-2-yl)(4-ethylpiperazine-1-yl)ketone]

same assay, conditions: IC50 (nM), 2 hours at room temperature

Compound	IC50
CN(C)c1nc2cc(-c3nc(Nc4ccc(C(=O)N5CCN(C(=O)OC(C)(C)C)CC5)nc4)ncc3F)ccc2s1 [Example 31]	590 nM
CC(=O)N1CCN(C(=O)c2ccc(Nc3ncc(F)c(-c4ccc5nc(N(C)C)sc5c4)n3)nc2)CC1 [Example 35, 1-(4-(6-((4-(2-(dimethylamino)benzothiazole-6-yl)-5-fluoropyrimidine-2-yl)amino)nicotinoyl)piperazine-1-yl)ethyl-1-one]	22 nM
